Experiment [1] relates to Pseudomonas aeruginosa PAO1 PCM 499. Format: cell-based. As to conditions: LB medium, 24 h, 30° C. As for the experimental part:
(§1) All strains were cultured in LB medium (lysogenic broth).
(§2) The test compounds were dissolved in water. […] Data were obtained from three independent experiments.

Experiment [2] deals with Salmonella sv. typhimurium TT622. It is filed as cell-based. As to conditions: 24 h. As for the experimental part: as §1, §2
For experiment [3], the system named is Staphylococcus epidermidis ATCC 12228. Format: cell-based. As to conditions: LB medium, 24 h, 30° C. As for the experimental part:
as §1, §2

The subject of experiment [4] is Staphylococcus aureus ATCC 29213. It is filed as cell-based. As to conditions: LB medium, 24 h, 30° C. As for the experimental part: as §1, §2
Experiment [5] relates to Klebsiella pneumoniae PCM 1. Format: cell-based. As to conditions: LB medium, 24 h, 30° C. As for the experimental part: as §1, §2
The subject of experiment [6] is Yersinia enterocolitica PCM 2081. It is filed as cell-based. As to conditions: LB medium, 24 h, 30° C. On the procedure: as §1, §2
Experiment [7] deals with Escherichia coli ST2-8624 O157:H7. It is filed as cell-based. To be noted: LB medium, 24 h, 30° C. As for the experimental part:
as §1, §2

Experiment [8] has as its system Enterococcus faecalis ATCC 14506. It is filed as cell-based. To be noted: LB medium, 24 h, 30° C. As for the experimental part: as §1, §2
The test system of experiment [9] is Methicillin-resistant Staphylococcus aureus (MRSA) 4811/13. As to conditions: MRSA strain (+) 4811/13; LB medium, 24 h, 30° C. From the text: (§3) All bacterial strains were obtained from the Polish Collection of Microorganisms (PCM) or American Type Culture Collection (ATCC). Gram-positive bacterial strains: Staphylococcus aureus ATCC 29213, Staphylococcus epidermidis ATCC 12228, Enterococcus faecalis ATCC 14506. Methicillin-resistant Staphylococcus aureus (MRSA) bacterial strains: Staphylococcus aureus 401/5, Staphylococcus aureus 4811/13, Staphylococcus aureus 5288/13. Gram-negative bacterial strains: Escherichia coli ST2-8624 O157:H7, Pseudomonas aeruginosa PAO1 PCM 499, Klebsiella pneumoniae PCM 1, Salmonella sv. typhimurium TT622, and Yersinia enterocolitica PCM 2081. All strains were cultured in LB medium (lysogenic broth).
(§4) 10 mL of LB medium was inoculated with the material from a single bacterial colony and cultured at 30° C. with shaking overnight. The optical density of overnight cultures (at 600 nm) was then brought to 0.05 by dilution with a fresh portion of LB medium. The test compounds were dissolved in water. Serial dilutions of the compounds were performed in LB medium ranging from 5 to 50 μg/mL (final concentrations). The experiment was carried out by adding 100 μL of each prepared dilution to 100 μL of diluted overnight bacterial culture in the wells of a 96-well titer plate. […] Optical density measurements were conducted using a TECAN Sunrise plate reader. Data were obtained from three independent experiments.

Experiment [10] concerns Methicillin-resistant Staphylococcus aureus (MRSA) 5288/13. As to conditions: MRSA strain (+) 5288/13; LB medium, 24 h, 30° C.
Source text: as §3, §4

Experiment [11] relates to Methicillin-resistant Staphylococcus aureus (MRSA) 401/5. As to conditions: MRSA strain (+) 401/5; LB medium, 24 h, 30° C.
Source text: as §3, §4

Experiment [12] deals with strains of methicillin-resistant Staphylococcus aureus (MRSA). The experiment can be described thus: Activity against MRSA strains (summary of the MIC results). As to conditions: in words, from the MIC values of Table 1. It is filed as cell-based. On the procedure: as §1, §2
The results of the measurements summarized in Table 1 indicate that all of the lipooligoureas tested show varying activity against the bacterial strains tested. Lipooligoureas according to the invention show activity against both gram-positive and gram-negative bacterial strains. The results obtained indicate a certain degree of selectivity of the lipooligoureas according to the invention against gram-positive strains of Staphylococcus aureus ATCC 29213 and Staphylococcus epidermidis ATCC 12228, for which by far the highest activity of the tested lipooligoureas was observed, i.e. the lowest values of MIC. This trend is also reflected in the activity against strains of methicillin-resistant Staphylococcus aureus (MRSA).

Where [13] appears, read: (−) Salmonella sv. typhimurium TT622, LB medium, 30° C.

Each structure is given as a SMILES string. Converted amounts (≈) assume the structure as drawn. Read-outs that look alike come from different tables or passages of the source.

For the compound `CCCCCCCCCC(=O)N[C@H](CNC(=O)N[C@@H](CCCCN)CNC(=O)N[C@@H](CCCCN)CNC(=O)N[C@H](CNC(=O)N[C@@H](CCCCN)CNC(N)=O)CC(C)C)Cc1ccccc1` [LOU1], the minimum inhibitory concentration (MIC) result in experiment [1] is “n.d. (n.d. = not determined, i.e., the MIC value was higher than 50 μg/mL)”; in experiment [2] (setting [13]), “n.d. (n.d. = not determined, i.e., the MIC value was higher than 50 μg/mL)”; in [3], 30 µg/mL (≈ 31.2 µM); in experiment [4] it was 30 µg/mL (≈ 31.2 µM); in experiment [5] it was “n.d. (n.d. = not determined, i.e., the MIC value was higher than 50 μg/mL)”; in [6], “n.d. (n.d. = not determined, i.e., the MIC value was higher than 50 μg/mL)”. Also, the MIC result in [7] was “n.d. (n.d. = not determined, i.e., the MIC value was higher than 50 μg/mL)”; in experiment [8], “n.d. (n.d. = not determined, i.e., the MIC value was higher than 50 μg/mL)”; in [9], 30 µg/mL (≈ 31.2 µM); in [10] it was 40 µg/mL (≈ 41.6 µM); in experiment [11] it was 30 µg/mL (≈ 31.2 µM).
As to `CCCCCCCCCC(=O)N[C@H](CNC(=O)N[C@@H](CCN)CNC(=O)N[C@@H](CCN)CNC(=O)N[C@H](CNC(=O)N[C@H](CNC(N)=O)CC(C)C)CC(C)C)Cc1ccccc1` [LOU2], in [12], the “activity against strains of methicillin-resistant Staphylococcus aureus (MRSA)” value is “particularly high activity”. Further, the minimal inhibitory concentration (MIC) came out at 30 µg/mL (≈ 33.7 µM) in experiment [1]; 30 µg/mL (≈ 33.7 µM) in [2]; 10 µg/mL (≈ 11.2 µM) in experiment [3]; 10 µg/mL (≈ 11.2 µM) in [4]; 30 µg/mL (≈ 33.7 µM) in experiment [5]; 30 µg/mL (≈ 33.7 µM) in experiment [6]. Moreover, the MIC was 30 µg/mL (≈ 33.7 µM) in [7]; 20 µg/mL (≈ 22.5 µM) in experiment [8]; 10 µg/mL (≈ 11.2 µM) in [9]; 10 µg/mL (≈ 11.2 µM) in experiment [10]; 10 µg/mL (≈ 11.2 µM) in experiment [11].
Consider `CCCCCCCCCC(=O)N[C@H](CNC(=O)N[C@@H](CCN)CNC(=O)N[C@H](CNC(=O)N[C@H](CNC(=O)N[C@@H](CCN)CNC(N)=O)CC(C)C)CC(C)C)Cc1ccccc1` [LOU3], for which, in experiment [12], the “activity against strains of methicillin-resistant Staphylococcus aureus (MRSA)” value was “particularly high activity”. Further, the minimum inhibitory concentration (MIC) in experiment [1] worked out at 10 µg/mL (≈ 11.2 µM); in experiment [2] it was 20 µg/mL (≈ 22.5 µM); in experiment [3], 5 µg/mL (≈ 5.62 µM); in experiment [4], 5 µg/mL (≈ 5.62 µM); in [5], 20 µg/mL (≈ 22.5 µM); in experiment [6], 10 µg/mL (≈ 11.2 µM). For the same compound, the minimum inhibitory concentration (MIC) in experiment [7] was found to be 10 µg/mL (≈ 11.2 µM); in experiment [8], 5 µg/mL (≈ 5.62 µM); in experiment [9], 5 µg/mL (≈ 5.62 µM); in [10], 5 µg/mL (≈ 5.62 µM); in experiment [11], 5 µg/mL (≈ 5.62 µM).
As for `CCCCCCCCCC(=O)N[C@H](CNC(=O)N[C@@H](CCN)CNC(=O)N[C@@H](CCN)CNC(=O)N[C@H](CNC(=O)N[C@@H](CCN)CNC(N)=O)CC(C)C)Cc1ccccc1` [LOU4], the minimum inhibitory concentration (MIC) entry in [1] was “n.d. (n.d. = not determined, i.e., the MIC value was higher than 50 μg/mL)”; in [2] (setting [13]) it was “n.d. (n.d. = not determined, i.e., the MIC value was higher than 50 μg/mL)”; in experiment [3], 20 µg/mL (≈ 22.8 µM); in experiment [4], 20 µg/mL (≈ 22.8 µM); in experiment [5] it was “n.d. (n.d. = not determined, i.e., the MIC value was higher than 50 μg/mL)”; in [6] it was “n.d. (n.d. = not determined, i.e., the MIC value was higher than 50 μg/mL)”. Besides, the MIC entry in experiment [7] was “n.d. (n.d. = not determined, i.e., the MIC value was higher than 50 μg/mL)”; in experiment [8] it was 40 µg/mL (≈ 45.6 µM); in [9], 30 µg/mL (≈ 34.2 µM); in experiment [10], 30 µg/mL (≈ 34.2 µM); in [11] it was 20 µg/mL (≈ 22.8 µM).
